The values that follow come from patent US20090023684A1, “FLUID FOR PERITONEAL DIALYSIS” (priority 2005, published 2009).

This experiment in a line: Body fluid removability of DF using dialysis tube (Experiment 2). To be noted: similar experiment, compared with the CNN results; data omitted. As to the method: Experiments, examining the effects of a cyclic tetrasaccharide on the body fluid removability of DF, were carried out using dialysis tube as follows:
According to the compositions shown in Table 2, DFs comprising glucose or CNN are prepared, respectively. Into a dialysis tube (Molecular weight cut off: 15,000 daltons; diameter: 16 mm; length: 70 mm), 1.5 milliliters each of the DF was poured and sealed using a closer, and then put into one liter of a dialyzing solution, prepared by admixed sodium chloride and dextran (Molecular weight: 60,000 to 90,000 daltons; commercialized by Wako Pure Chemical Industries Ltd., Osaka, Japan) with purified water to give concentrations of 9 g/L and 6 g/L, respectively, for dialysis. The fluid volumes in the dialysis tube at one to 14 hours after the start of dialysis were examined by measuring the weight of the tube. In the experiment, three dialysis tubes were used for a kind of DF. The changes of fluid volumes in the dialysis tubes were measured by calculating the average of the results of three tubes expressed as relative values using each fluid volume at the start of dialysis as 100.

As for `OC[C@H]1O[C@@H]2OC[C@H]3O[C@H](O[C@H]4[C@H](O)[C@@H](O)[C@@H](OC[C@H]5O[C@H](O[C@H]1[C@H](O)[C@H]2O)[C@H](O)[C@@H](O)[C@@H]5O)O[C@@H]4CO)[C@H](O)[C@@H](O)[C@@H]3O` [CMM, cyclomaltosylmaltose], the “Fluid volume increase in dialysis tube with CMM used instead of CNN in Table 2” value is “almost the same results”.
